In patent publication US20160083424A1, “COMPOSITIONS AND METHODS FOR TARGETING ANTIGEN-PRESENTING CELLS” (OSLO UNIVERSITETSSYKEHUS HF, priority 2013, published 2016):
Read-outs that look alike come from different tables or passages of the source. Blank lines part the entries; values can stand above or below the molecule they belong to. Where no end group is shown, it is not given here.

What was measured:
DCs = assay: Fluorescence microscopy analysis of phage binding and internalization; format: cell-based, human; conditions: 37° C. for 90 min
Method: DCs were incubated with biotinylated phages at 4° C. for 30 min. After washing, the cells were incubated with streptavidin-PE. […] Hoechst 33342 dye was added to the cells for 5 min and then the cells were washed, fixed with 4% paraformaldehyde, and covered with Dako cytomation fluorescent mounting medium and analyzed with epifluorescence microscopy. Confocal images were obtained using an AxioVert 200 microscope (Carl Zeiss, Jena, Germany).

[1] = system: Cancer cell lines (MCF-7, MDA-MB 231, SW480, REH); assay: Phage binding by flow cytometry; set-up: species or system human; conditions: all tested cancer cell lines
Method: (§1) In brief, aliquots of DCs (10^5) were divided into conical 96-well micro-plate, washed with PBS buffer containing 1% FCS, and then incubated with the amplified phages (≈10^9 TU) for 30-60 min on ice. After washing, cells were incubated with biotinylated anti-M13 monoclonal antibody (Abcam) and then with phycoerythrin (PE)-conjugated streptavidin. Competition assays were performed by pre-incubating DCs with different amounts of the peptides for 15 min on ice. Then NW phage (≈10^9 TU) was added and samples incubated for additional 60 min on ice. After washing, bound phages were detected as indicated above. Samples were analyzed by FACSCanto II flow cytometry.

B cells [2] = assay: Phage binding by flow cytometry; set-up: species or system human
Method: as §1

mDCs [3] = assay: Phage binding by flow cytometry; set-up: species or system human
Method: as §1

Blood pDCs [4] = assay: Phage binding by flow cytometry; set-up: species or system human
Method: as §1

NK cells [5] = assay: Phage binding by flow cytometry; set-up: species or system human
Method: as §1

iDCs [6] = assay: Phage binding by flow cytometry; set-up: species or system human
Method: as §1

T cells [7] = assay: Phage binding by flow cytometry; set-up: species or system human
Method: as §1

Monocytes [8] = assay: Phage binding by flow cytometry; set-up: species or system human
Method: as §1

Blood myeloid DCs [9] = assay: Phage binding by flow cytometry; set-up: species or system human
Method: as §1

THP-1 = assay: Phage binding by flow cytometry; conditions: human monocyte cell line THP-1
Method: as §1

iDCs [10] = system: iDCs
Method: Commercially available streptavidin-PE (1/200) was incubated with biotinylated NW peptide or control peptide (1 μg/ml) for 30 min at RT. Then the mixtures were added to DCs growing in Lab-Tek chamber slides (Nalge Nunc International, Naperville, USA) and incubated for 60 min at 4° C. The cells were washed 3 times with medium and incubated at 37° C. for 90 min to allow internalization of bound streptavidin-PE. To visualize the nuclei, Hoechst 33342 (Invitrogen Dynal AS, Oslo, Norway) was added to the cells for 5 min. Subsequently, the cells were fixed with 4% paraformaldehyde, washed and slides were covered with Dako cytomation fluorescent mounting medium followed by epifluorescence microscopy analysis. Confocal images were taken with an AxioVert 200 microscope (Carl Zeiss, Jena, Germany).
The use of the NW peptide to target antigens to DCs was assessed by examining its ability to promote the binding and uptake of streptavidin-PE complexes. For these experiments, streptavidin-PE was pre-incubated with either biotin conjugated NW peptide or biotin conjugated control peptide and then the mixtures were added to iDCs growing in Lab-Tek chamber slides, incubated at 4° C., washed and then transferred at 37° C.

Monocytes [11] = conditions: biotin labeled peptide (10 μg), Dynabeads M-280 streptavidin, flow cytometry
Method: In these experiments, peripheral blood mononuclear cells were isolated from buffy coats of healthy donors by density gradient centrifugation. […] Subsequently, the cells were washed with the binding buffer to remove unbound peptide and then they were suspended in 100 μl binding buffer. Subsequently, pre-washed Dynabeads M-280 streptavidin (20 μl) were added and the mixtures were incubated for 15 min at room temperature with agitation. After, the mixtures were placed in the separation magnet, during which time the beads and any attached cells are drawn to one side of the tube. Non-attached cells were carefully aspirated off and analyzed by flow cytometry to check the removal of the monocyte fraction (FIG. 15).

human Gal-3 = assay: Gene silencing by peptide-siRNA conjugates, Western blot; format: cell-based; conditions: iDCs, 48 h incubation
Method: Immature DCs were seeded in a 6-well plate at a density of 10^6 cells per well and incubated for 24 h prior to transfection. Then the medium was replaced by fresh X-vivo 15 medium (2 ml/well) containing peptide-siRNA conjugates or free siRNAs. Cells were harvested 48 h after addition of the test molecules and monitored for gene expression by Western blots.
Cells were resuspended in protein extraction buffer (PBS+1% NP-40) supplemented with protease inhibitor cocktail (Sigma-Aldrich Norge, Oslo, Norway) and incubated for 30 min on ice. After centrifugation, the supernatant were collected and protein contents were determined using Bio-Rad protein assay. Equal amounts of protein were resolved by electrophoresis on a 10% sodium dodecyl sulfate (SDS)-polyacrylamide gel and electrotransferred to nitrocellulose membrane. After blocking in 5% milk in TBS-Tween (1%) for 60 min, membranes were probed with primary antibodies against Gal-3 and HRP-conjugated secondary antibody. Immunoreactive proteins were detected using the enhanced chemiluminescence system. To control for protein loading, membranes were stripped and then incubated with β-actin monoclonal antibody.
Because siRNA molecules must be released into the cytoplasm in order to function (Elbashir et al., (2001) Nature 411, 494-498), the data further confirm the internalization of the peptide after binding to DCs.

mDCs [12] = assay: Mixed leukocyte reaction (MLR); format: cell-based, human; conditions: peptide-treated vs untreated mDCs
Method: (§2) With respect to cancer immunotherapy and active immunization against infectious diseases, targeting moieties should not have a negative impact on DC immunogenic function. To investigate whether the NW peptide can modulate DC phenotype and function, mDC were incubated with the peptide for 48 h and subsequently the expression of CD80, CD83, CD86, and HLADR molecules were analyzed by flow cytometry. […] The ability of mDCs to stimulate T-cell proliferation was assessed in a mixed leukocyte reaction (MLR), a hallmark of DC function. […] The NW-peptide had no major negative effects on DC phenotype and function.

iDC = assay: Competition of NW phage binding by synthetic peptides; set-up: species or system human
Method: as §1
To further investigate the importance of the NW peptide on phage binding, competition experiments were performed using synthetic peptides.

B cells [13] = assay: Peptide binding by flow cytometry; set-up: species or system human
Method: (§3) The cells were seeded onto 24-well plate (3×10^5/well/0.5 ml) in X-vivo 15 medium and incubated overnight at 37° C. Subsequently, they were incubated with 6IAF-conjugated peptides (5 μg/ml) for 30 min at 37° C., gently scraped, washed 3 times and then analyzed by flow cytometry. Binding was also performed at 4° C.

Blood pDCs [14] = assay: Peptide binding by flow cytometry; set-up: species or system human
Method: as §3

NK cells [15] = assay: Peptide binding by flow cytometry; set-up: species or system human
Method: as §3

iDCs [16] = assay: Peptide binding by flow cytometry; set-up: species or system human; conditions: 4° C. and 37° C.
Method: as §3

T cells [17] = assay: Peptide binding by flow cytometry; set-up: species or system human
Method: as §3

Monocytes [18] = assay: Peptide binding by flow cytometry; set-up: species or system human; conditions: compared with dendritic cells
Method: as §3

Blood myeloid DCs [19] = assay: Peptide binding by flow cytometry; set-up: species or system human
Method: as §3

Monocytes [20] = assay: Competition of NW phage binding by NW peptide and its mutant peptides; set-up: species or system human
Method: as §1
To uncover the contribution of individual side chains and identify which amino acids are responsible for the NW peptide binding to monocytes and dendritic cells, alanine scanning was performed. Derivatives of the NW peptide were synthesized with exchange of each amino acid by alanine (FIG. 11A). These peptide derivatives were used to compete with the NW phage binding to monocytes. For each peptide, four concentrations were tested. Bound phage particles were detected with the use of biotin conjugated anti-M13 antibody and PE-conjugated streptavidin. The NW peptide (WT) competed effectively with the phage binding to monocytes with an IC50 of approximately 0.5 uM. The replacement of tryptophan (W) at position 2, 6, or 12 by a single alanine abolished the binding. Indeed, no significant competition with the phage binding was seen even at high peptide concentrations (C4=20 uM). Similarly, replacement of leucine (L) at position 4 or 7 by alanine inhibited the peptide binding (FIG. 11B).

mDC = assay: Phenotypic analysis of DCs after peptide incubation; format: cell-based, human; conditions: mDC incubated with peptide (15 μM) for 48 h, flow cytometry
Method: Phenotype of DCs was analyzed by direct immunofluorescence staining of cell surface antigens using FITC or PE conjugated antibodies against CD80, CD83, CD86, HLA-DR, CCR7, CD40, and isotype controls. All antibodies were purchased from Dako (Glostrup, Denmark) or BD Biosciences (San Diego, Calif., USA). After staining on ice for 30 min, samples were washed twice and then analyzed by FACSCantoII flow cytometry
as §2

iDCs [21] = assay: Peptide binding and internalization by fluorescence microscopy; format: cell-based, human
Method: Then the medium was replaced with fresh medium and the cells were incubated with the peptides (5 μg/ml) for 60 min at 37° C. followed by 5 min incubation with Hoechst 33342 (Invitrogen Dynal AS, Oslo, Norway). The cells were washed twice with PBS and fixed with 4% paraformaldehyde for 15 min at 4° C. After washing, slides were covered with Dako cytomation fluorescent mounting medium and then images were taken with either epifluorescence (Leica DM RHC, Leica Microscopy As, Oslo, Norway) or confocal microscopy (Zeiss LSM 510, […]).

[22] = target: NW peptide receptor (human); assay: competition with NW phage on monocytes, flow cytometry; C3 = 8 µM peptide
[23] = target: NW peptide receptor (human); assay: competition with NW phage on monocytes, flow cytometry

Molecule: NWYLPWLGTNDW [DC2]
internalization of the phage particles into DCs (DCs): able to mediate the internalization of the phage particles into DCs
phage binding [1]: did not bind
phage binding (B cells [2]): did not bind
Phage Binding (mDCs [3]): ++++ (Binding >80-100%: ++++)
phage binding (mDCs [3]): strong binding
Phage Binding (Blood pDCs [4]; Blood pDCs): ++++ (Binding >80-100%: ++++)
phage binding (Blood pDCs [4]; CD303+ plasmacytoid DCs): bound
phage binding (NK cells [5]): did not bind
phage binding after trypsine treatment of DCs (iDCs [6]; Trypsine treatment of DCs, data not shown): eliminated phage binding
Binding (iDCs [6]; binding of the phage clones to iDC, flow cytometry): ++++ (Binding >80-100%: ++++)
phage binding (iDCs [6]; iDC): strong binding
Phage Binding (iDCs [6]; iDCs): ++++ (Binding >80-100%: ++++)
phage binding (T cells [7]): did not bind
Phage Binding (Monocytes [8]): ++++ (Binding >80-100%: ++++)
phage binding (Monocytes [8]): strong binding
Phage Binding (Blood myeloid DCs [9]; Blood myeloid DCs): ++++ (Binding >80-100%: ++++)
phage binding (Blood myeloid DCs [9]; blood CD1c+ myeloid DCs): bound
phage binding (THP-1): did not bind

Molecule: NWYLPWLGTNDWGGGK-Biotin [NW-Biotin peptide]
binding of streptavidin-PE complexes to DCs (iDCs [10]; biotinylated peptide pre-incubated with streptavidin-PE, 4° C.): mediated the binding of streptavidin-PE complexes to DCs
internalization of streptavidin-PE (iDCs [10]; confocal microscopy, after transfer to 37° C.): clear internalization and cellular localization of streptavidin-PE molecules
removal of the monocyte fraction from PBMC (Monocytes [11]): most, if not all monocyte population were removed

Molecule: NWYLPWLGTNDWC [NW peptide, NWYLPWLGTNDWC]
Gal-3 gene silencing (human Gal-3): did not induce any detectable gene silencing
T-cell proliferation in MLR (mDCs [12]): comparable T-cell proliferation
inhibition of the phage binding to iDC by synthetic peptides (iDC): effectively inhibited the phage binding to iDC in a concentration-dependent manner
peptide binding (B cells [13]): did not bind
peptide binding (Blood pDCs [14]; Blood pDCs): ++++ (Binding >80-100%: ++++)
peptide binding (Blood pDCs [14]; CD303+ plasmacytoid DCs): bound efficiently
peptide binding (Blood pDCs [14]; CD303+ plasmacytoid DCs, listed as synthetic peptide): bound
peptide binding (NK cells [15]): did not bind
binding of 6-IAF-conjugated peptides to iDCs (iDCs [16]): strong binding both at 4 °C and 37 °C
peptide binding (T cells [17]): did not bind
peptide binding (Monocytes [18]): bound as strongly to monocytes as to dendritic cells
peptide binding (Blood myeloid DCs [19]; Blood myeloid DCs): ++++ (Binding >80-100%: ++++)
peptide binding (Blood myeloid DCs [19]; blood CD1c+ myeloid DCs): bound efficiently
peptide binding (Blood myeloid DCs [19]; blood CD1c+ myeloid DCs, listed as synthetic peptide): bound
IC50 (Monocytes [20]; dose-dependent inhibition, peptide concentrations 0.4, 2, 8, and 20 μM, read-out: inhibition of the NW phage binding, IC50): 500 nM
IC50 (Monocytes [20]; monocytes, read-out: competition with the phage binding to monocytes, IC50): ~500 nM
expression of CD80, CD83, CD86, and HLADR molecules (mDC): None of the analyzed markers were significantly affected
cell staining by epifluorescence microscopy (iDCs [21]; 6-IAF-conjugated peptide): strong cell staining
internalization by iDCs (confocal microscopy) (iDCs [21]; 37° C.): efficiently internalized by iDCs

mean fluorescence of bound NW phage at C3 concentration [22]: 250
Molecule: NWYLPWLGTAAW [N10D11 double mutant]

fold reduction in IC50 against the NW peptide [23]: 20 fold
Molecule: NWYLPWLGTW [NW peptide with deletion of N10D11]
